Square brackets hold non-standard residues; d marks the D form. Peptide text beside a SMILES is read from it. Hyp = O=C(O)[C@@H]1C[C@@H](O)CN1
What was measured:
BAM1 LRR ectodomain = target: T1, BAM1 LRR ectodomain (Arabidopsis thaliana, UniProt O49545); experiment: ITC, peptide titrated into BAM1 ectodomain; type: binding
T1 construct: BAM1 (residues 20–637, AT5G65700); azurocidin or Drosophila BIP signal peptide (secretion signal) (N); made in house; host or cells: Trichoplusia ni Tnao38 insect cells (baculovirus)
T1 sequence (O49545 20-637): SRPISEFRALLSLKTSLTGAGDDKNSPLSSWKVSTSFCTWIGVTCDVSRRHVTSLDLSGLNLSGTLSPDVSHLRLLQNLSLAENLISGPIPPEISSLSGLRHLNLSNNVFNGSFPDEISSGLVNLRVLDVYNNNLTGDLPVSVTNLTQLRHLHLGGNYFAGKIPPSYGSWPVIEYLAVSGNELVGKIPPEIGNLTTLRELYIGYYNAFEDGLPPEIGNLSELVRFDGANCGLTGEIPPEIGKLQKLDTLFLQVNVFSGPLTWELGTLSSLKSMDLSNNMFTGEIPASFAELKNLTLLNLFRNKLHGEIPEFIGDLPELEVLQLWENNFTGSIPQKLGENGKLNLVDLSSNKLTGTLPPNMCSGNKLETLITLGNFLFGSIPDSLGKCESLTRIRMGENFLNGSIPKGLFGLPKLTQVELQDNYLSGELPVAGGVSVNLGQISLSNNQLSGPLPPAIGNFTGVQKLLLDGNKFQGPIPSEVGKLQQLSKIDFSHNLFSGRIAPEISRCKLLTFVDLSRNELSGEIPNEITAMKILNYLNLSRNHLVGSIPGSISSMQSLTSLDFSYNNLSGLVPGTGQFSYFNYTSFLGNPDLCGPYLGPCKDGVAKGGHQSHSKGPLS
Excerpt: All genes used for protein expression in Trichoplusia ni Tnao38 cells[46] were codon optimized and cloned into a modified pFastBac vector (Geneva Biotech) providing an azurocidin[47] or Drosophila BIP signal peptide, a TEV (tobacco etch virus protease) cleavage site and a Strep-9xHis tandem affinity tag at their carboxy terminus. The genes used are coding for the Arabidopsis ectodomains of HSL1 (residues 17-618, AT1G28440), HAE (residues 20-620, AT4G28490) SERK1 (residues 24–213, AT1G71830), and BAM1 (residues 20–637, AT5G65700). To perform Grating-coupled interferometry (GCI) experiments, HSL1 was fused to a non-cleavable Avi-tag[49],[50]. Baculovirus generation was carried out in DH10 cells and virus amplification was done in Spodoptera frugiperda Sf9 cells. For protein expression, Trichoplusia ni Tnao38 cells were infected with HAE, HSL1, BAM1 and SERK1 virus with a multiplicity of infection (MOI) of 3. The cells were grown 1 day at 28 °C and two days at 22 °C at 110 rpm. After every expression round, secretion of our proteins was detected using an anti-His-HRP conjugated antibody from Roche (Ref:11965085001) in a 1:2000 dilution. […] Next, affinity tags were removed by incubating the purified proteins with recombinant His-tagged TEV protease, in a 1:50 ratio. The cleaved tag and the protease were separated from the ectodomains by a second Ni^2+ affinity step. Proteins were further purified by size-exclusion chromatography on a Superdex 200 Increase 10/300 GL column (GE Healthcare) equilibrated in 20 mM citric acid pH 5.0, 150 mM NaCl. Peak fractions containing the single proteins or complexes were concentrated using Amicon Ultra concentrators (Millipore, MWCO 10,000 for SERK1 and 30,000 for HAE, HSL1, and BAM1) and used for crystallization or biochemical experiments. Proteins were analyzed for purity and structural integrity by SDS-PAGE.
Experiments were performed at 25 °C using a MicroCal PEAQ-ITC (Malvern Instruments) with a 200 µL standard cell and a 40 μL titration syringe. HSL1, BAM1, and SERK1 proteins were gel-filtrated into the ITC buffer (20 mM sodium citrate pH 5.0, 150 mM NaCl). Molar protein concentrations for HSL1, BAM1, and SERK1 were calculated using their molar extinction coefficient and a molecular weight of 74,896 and 27,551 Da, respectively as previously determined. A typical experiment consisted of injecting 2 μL of a range between 75 and 600 μM solution of ligand into 10 to 30 μM HAE, HSL1, or BAM1 solution in the cell at 150 s intervals and 500 rpm stirring speed. The SERK1 vs HAE/HSL1-peptide experiments were performed by titrating 100 µM SERK1 in the cell, using the same injection pattern. ITC data were corrected for the heat of dilution by subtracting the mixing enthalpies for titrant solution injections into protein-free ITC buffer. Experiments were done in duplicates or triplicates, otherwise specified, and data were analyzed using the MicroCal PEAQ-ITC Analysis Software provided by the manufacturer. […] The N values were fitted to 1 in the analysis.

HSL1 ectodomain [1] = target: T2, HSL1 ectodomain (Arabidopsis thaliana, UniProt Q9SGP2); experiment: ITC, peptide titrated into isolated HSL1 ectodomain; conditions: peptide (syringe) into HSL1 ectodomain (cell), 25 °C, 20 mM sodium citrate pH 5.0, 150 mM NaCl, N fitted to 1, mean ± SD of at least two independent experiments, n.d = no binding detected
T2 construct: HSL1 (residues 17-618, AT1G28440); azurocidin or Drosophila BIP signal peptide (secretion signal) (N); made in house; host or cells: Trichoplusia ni Tnao38 insect cells (baculovirus)
T2 sequence (Q9SGP2 17-618): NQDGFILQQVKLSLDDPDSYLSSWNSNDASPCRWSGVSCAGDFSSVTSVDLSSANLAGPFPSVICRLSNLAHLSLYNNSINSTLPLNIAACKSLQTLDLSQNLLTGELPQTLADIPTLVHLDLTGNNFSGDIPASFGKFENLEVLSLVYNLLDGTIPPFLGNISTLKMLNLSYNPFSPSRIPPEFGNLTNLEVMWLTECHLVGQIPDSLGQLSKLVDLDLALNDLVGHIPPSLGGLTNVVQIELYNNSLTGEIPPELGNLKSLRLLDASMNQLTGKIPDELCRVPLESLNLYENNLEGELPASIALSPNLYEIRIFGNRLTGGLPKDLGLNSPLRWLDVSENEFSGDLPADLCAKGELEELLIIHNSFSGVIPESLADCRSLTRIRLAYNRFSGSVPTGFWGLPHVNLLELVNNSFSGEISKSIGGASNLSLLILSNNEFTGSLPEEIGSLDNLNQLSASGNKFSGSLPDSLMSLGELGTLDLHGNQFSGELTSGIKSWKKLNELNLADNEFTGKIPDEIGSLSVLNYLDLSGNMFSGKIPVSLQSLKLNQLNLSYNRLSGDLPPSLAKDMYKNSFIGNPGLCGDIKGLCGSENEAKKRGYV
Excerpt: All genes used for protein expression in Trichoplusia ni Tnao38 cells[46] were codon optimized and cloned into a modified pFastBac vector (Geneva Biotech) providing an azurocidin[47] or Drosophila BIP signal peptide, a TEV (tobacco etch virus protease) cleavage site and a Strep-9xHis tandem affinity tag at their carboxy terminus. The genes used are coding for the Arabidopsis ectodomains of HSL1 (residues 17-618, AT1G28440), HAE (residues 20-620, AT4G28490) SERK1 (residues 24–213, AT1G71830), and BAM1 (residues 20–637, AT5G65700). To perform Grating-coupled interferometry (GCI) experiments, HSL1 was fused to a non-cleavable Avi-tag[49],[50]. […] After every expression round, secretion of our proteins was detected using an anti-His-HRP conjugated antibody from Roche (Ref:11965085001) in a 1:2000 dilution. […] Proteins were analyzed for purity and structural integrity by SDS-PAGE.
Experiments were performed at 25 °C using a MicroCal PEAQ-ITC (Malvern Instruments) with a 200 µL standard cell and a 40 μL titration syringe. […] Molar protein concentrations for HSL1, BAM1, and SERK1 were calculated using their molar extinction coefficient and a molecular weight of 74,896 and 27,551 Da, respectively as previously determined. […] Experiments were done in duplicates or triplicates, otherwise specified, and data were analyzed using the MicroCal PEAQ-ITC Analysis Software provided by the manufacturer. […]

HSL1 ectodomain [2] = target: T2, HSL1 ectodomain; experiment: GCI binding kinetics, peptide vs immobilised HSL1; conditions: HSL1 on surface, peptide as analyte, 25 °C, pH 5, one-to-one binding model, read-out: ka association rate constant, peptide vs HSL1 (GCI)
Method: 25 μM of HSL1 were biotinylated with the biotin ligase BirA[60] (2 μM) for 1 h at 30 °C, in a volume of 200 μl. The buffer used in the reaction was: 25 mM Tris pH 8, 150 mM NaCl, 5 mM MgCl2, 2 mM 2-Mercaptoethanol, 0.15 mM Biotin, 2 mM ATP. Biotinylated proteins were purified by size-exclusion chromatography in 20 mM citric acid pH5, 150 mM NaCl and subsequently used in GCI experiments.
GCI experiments were performed with the Creoptix WAVE system (Creoptix AG, Switzerland) using 4PCP WAVE chips (thin quasiplanar polycarboxylate surface; Creoptix, Switzerland). Chips were first conditioned with borate buffer (100 mM sodium borate pH 9.0, 1 M NaCl; Xantec, Germany). Chips were activated with 1:1 mix of 400 mM N-(3-dimethylaminopropyl)-N′-ethylcarbodiimide hydrochloride and 100 mM N-hydroxysuccinimide (Xantec, Germany). Streptavidin (50 µg/ml; Sigma, Germany) in 10 mM sodium acetate pH 5.0 (Sigma, Germany) was immobilized on the chip surface until saturation was reached, followed by passivation of the surface with BSA (50 µg/ml; Sigma, Germany) in 10 mM sodium acetate pH5.0, and a final quenching step with 1 M ethanolamine pH 8.0 (Xantec, Germany). Then, biotinylated HSL1 (ligand) (80–100 μg/ml) was captured on the streptavidin surface until the desired density was reached. Normal kinetic analysis were performed to measure the binding of IDL peptides (analyte) to HSL1. Experiments were performed at 25 °C with a 1:2 dilution series from a maximum concentration of 5–50 μM peptide, in 20 mM citrate pH 5, 250 mM NaCl, 0.005% Tween-20 v/v. To analyze the interaction kinetics of the co-receptor SERK1, 2 µM of the protein was used as a higher dilution with running buffer containing 5 µM of the IDL peptides being tested. Blank injections were used for double referencing and a dimethylsulfoxide (DMSO) calibration curve for bulk correction. Analysis and correction of the obtained data were performed using the Creoptix WAVE control software (correction applied: X and Y offset; DMSO calibration; double referencing). One-to-one binding model was used for both experiments.

[3] = target: HSL1 (HAESA-LIKE 1) ectodomain (Arabidopsis) (UniProt Q9SGP2); experiment: ITC; peptide (75 to 600 µM) injected into 10 to 30 µM HSL1 or BAM1 ectodomain in the cell; 25 °C; 20 mM sodium citrate pH 5.0, 150 mM NaCl; N fitted to 1
[4] = target: T3, BAM1 (BARELY ANY MERISTEM 1) ectodomain (Arabidopsis, UniProt O49545 20-637); experiment: as above; conditions: both partners purified
T3 construct: BAM1 LRR receptor kinase ectodomain, Arabidopsis, residues 20-637, AT5G65700; codon optimised; secreted with an azurocidin or Drosophila BiP signal peptide; also called BAM1 extracellular domain; BAM1 LRR ectodomain; source: Trichoplusia ni Tnao38 cells (baculovirus), secreted, purified (Ni2+, Strep-Tactin, TEV cleavage, second Ni2+, SEC)
T3 sequence (looked up): T1 sequence (O49545 20-637)

[5] = target: T4, BAM1 (BARELY ANY MERISTEM 1) ectodomain (Arabidopsis, UniProt O49545 20-637); experiment: ITC
T4 chain: T1 sequence (O49545 20-637)

[6] = target: T4, BAM1 (BARELY ANY MERISTEM 1) ectodomain; experiment: ITC; R109P L110I

CC(C)C[C@H](NC(=O)[C@@H](N)CCCNC(=N)N)C(=O)N[C@H](C(=O)N1C[C@H](O)C[C@H]1C(=O)N[C@@H](CO)C(=O)NCC(=O)N1C[C@H](O)C[C@H]1C(=O)N[C@@H](CC(N)=O)C(=O)N1CCC[C@H]1C(=O)N[C@@H](CC(C)C)C(=O)N[C@@H](Cc1c[nH]cn1)C(=O)N[C@@H](CC(N)=O)C(=O)O)C(C)C [CLE9] (H-RLV[Hyp]SG[Hyp]NPLHN-OH)
Kd (BAM1 LRR ectodomain): 94 ± 56 nM | Kd (dissociation constant), peptide vs HSL1 (HSL1 ectodomain [1]): did not detect binding

CC(C)[C@H](NC(=O)[C@@H]1CCCN1)C(=O)N1CCC[C@H]1C(=O)N[C@@H](C)C(=O)N[C@@H](CO)C(=O)N[C@@H](C)C(=O)N1C[C@H](O)C[C@H]1C(=O)N[C@@H](CO)C(=O)N[C@@H](CCCNC(=N)N)C(=O)N[C@@H](CCCCN)C(=O)N[C@@H](Cc1c[nH]cn1)C(=O)N[C@@H](CC(N)=O)C(=O)O [IDL4, IDA-LIKE] (H-PVPASA[Hyp]SRKHN-OH)
kon (HSL1 ectodomain [2]): 460000 M⁻¹ s⁻¹

IDA^K66AR67AH68A peptide (from UniProt Q8LAD7 58-69)
fold reduction of binding affinity against wild-type IDA [3]: 15 fold

CC[C@H](C)[C@H](NC(=O)[C@@H]1CCCN1)C(=O)N1CCC[C@H]1C(=O)N1CCC[C@H]1C(=O)N[C@@H](CO)C(=O)N[C@@H](C)C(=O)N1C[C@H](O)C[C@H]1C(=O)N[C@@H](CO)C(=O)N[C@@H](CCCCN)C(=O)N[C@@H](CCCNC(=N)N)C(=O)N[C@@H](Cc1c[nH]cn1)C(=O)N[C@@H](CC(N)=O)C(=O)O [IDA, INFLORESCENCE DEFICIENT IN ABSCISSION] (H-PIPPSA[Hyp]SKRHN-OH)
Kd (dissociation constant), peptide vs BAM1 (BAM1 LRR ectodomain; ITC, peptide into BAM1 ectodomain (cell), 25 °C, 20 mM sodium citrate pH 5.0, 150 mM NaCl, N fitted to 1, mean ± SD of at least two independent experiments, n.d = no binding detected): did not detect interaction | kon (HSL1 ectodomain [2]): 225000 M⁻¹ s⁻¹

CC(C)[C@H](NC(=O)[C@@H]1CCCN1)C(=O)N1CCC[C@H]1C(=O)N[C@H](C(=O)N[C@@H](CO)C(=O)NCC(=O)N1C[C@H](O)C[C@H]1C(=O)N[C@@H](CO)C(=O)N[C@@H](CCCNC(=N)N)C(=O)N[C@@H](CCCCN)C(=O)N[C@@H](Cc1c[nH]cn1)C(=O)N[C@@H](CC(N)=O)C(=O)O)[C@@H](C)O [IDL3, IDA-LIKE] (H-PVPTSG[Hyp]SRKHN-OH)
kon (HSL1 ectodomain [2]): 700000 M⁻¹ s⁻¹

B1: CLE9^Hyp112PHyp115P peptide (peptide, UniProt Q9FZE4 109-120, looked up)
peptide: RLVPSGPNPLHN
modifications: Pro112 and Pro115 not hydroxylated
notes: CLE9 mature dodecapeptide with plain proline at 112 and 115 in place of hydroxyproline; also called CLE9 with Hyp in positions 4 and 7 replaced by Pro
Kd [4]: ~5 nM | Kd [5]: 3 nM

B2: CLE9^V111P peptide (peptide, UniProt Q9FZE4 109-120, looked up)
peptide: RLPPSGPNPLHN
notes: CLE9 mature dodecapeptide with Val111 changed to Pro; also called replacement of the third Val by a Pro
Kd [4]: 3000 nM

RIVPSGPNPLHN [CLE9 variant with the second residue substituted by the corresponding one of IDA]
Kd [6]: 129 nM
